From US8685974B2 (Bayer CropScience AG, priority 2009, dated 2014) come the findings set out here.

Like-named read-outs stand apart in the source and are kept apart here. Marks after values point to notes of the source that are not given here.

Data set [1] deals with Pyrenophora teres. The data set can be described thus: In vivo test on Pyrenophora teres (barley net blotch). The following applies: dose of 500 ppm; barley plants; grading 12 days after contamination. On the procedure:
In Vivo Test on Pyrenophora teres (Barley Net Blotch)
The active ingredients tested are prepared by homogenization in a mixture of acetone/Tween/DMSO, then diluted with water to obtain the desired active material concentration.
Barley plants (Plaisant variety), sown on a 50/50 peat soil-pozzolana substrate in starter cups and grown at 12° C., are treated at the 1-leaf stage (10 cm tall) by spraying with the active ingredient prepared as described above.
Plants, used as controls, are treated with an aqueous solution not containing the active material.
After 24 hours, the plants are contaminated by spraying them with an aqueous suspension of Pyrenophora teres spores (12,000 spores per ml). The spores are collected from a 12-day-old culture. The contaminated barley plants are incubated for 24 hours at about 20° C. and at 100% relative humidity, and then for 12 days at 80% relative humidity.
Grading is carried out 12 days after the contamination, in comparison with the control plants.

The test system of data set [2] is Fusarium graminearum. In kind it is cell-based. The following applies: 50 μM; for % Inhibition of DON/AcDON at 50 μM: 7 days at 28° C.
The test system of data set [3] is Alternaria solani. The data set can be described thus: Alternaria test (tomato) / protective. The following applies: 500 ppm active compound, protective spray, evaluated 7 days after inoculation. The format is in vivo. As for the experimental part: Alternaria Test (Tomato)/Protective
Solvent: 49 parts by weight of N,N-dimethylformamide
Emulsifier: 1 part by weight of alkylaryl polyglycol ether
To produce a suitable preparation of active compound, 1 part by weight of active compound is mixed with the stated amounts of solvent and emulsifier, and the concentrate is diluted with water to the desired concentration.
To test for protective activity, young tomato plants are sprayed with the preparation of active compound at the stated application rate. […] The plants then remain at 96% rel. atmospheric humidity and a temperature of 20° C.
Evaluation is carried out 7 days after the inoculation. 0% means an efficacy which corresponds to that of the control, whereas an efficacy of 100% means that no infection is observed.

For `CC(C)n1cc(-c2ccnc(NC(=O)[C@H](C)O)c2)c(-c2ccc(Cl)s2)n1` [Example 205], the log p (pH 2.7) was 2.75^[b]. Further, in data set [1], the protection amounted to 95%. Moreover, in data set [2], the “% Inhibition of fungal growth at 50 μM” value is reported as 84% and the “% Inhibition of DON/AcDON at 50 μM” value stood at 98%. The efficacy in data set [3] is 90%.
In the case of `CCC(C)n1cc(-c2ccnc(NC(=O)CC3CC3)c2)c(-c2ccc(Cl)s2)n1` (stereo not drawn) [Example 229], the log p (pH 2.7) is 3.81^[b]. In data set [1], this molecule showed a protection of 90%. In data set [2], the “% Inhibition of fungal growth at 50 μM” value is 82% and the “% Inhibition of DON/AcDON at 50 μM” value was found to be 98%. In addition, the efficacy in data set [3] stood at 95%.
Turning to `CCC(C)n1cc(-c2ccnc(NC(=O)C3CCC3)c2)c(-c2ccc(Cl)s2)n1` (stereo not drawn) [Example 240], the log p (pH 2.7) is 3.81^[b]. Besides, the protection in data set [1] is given as 90%. In addition, in data set [2], the “% Inhibition of fungal growth at 50 μM” value is 37% and the “% Inhibition of DON/AcDON at 50 μM” value stood at 99%. The same molecule yielded an efficacy in data set [3] of 95%.
With `CCC(C)n1cc(-c2ccnc(NC(=O)c3cccs3)c2)c(-c2ccc(Cl)s2)n1` (stereo not drawn) [Example 238], the log p (pH 2.7) was 4.37^[b]. In data set [1], this molecule displayed a protection of 80%. In addition, in data set [3], the efficacy stood at 70%.
With `CCC(C)n1cc(-c2ccnc(NC3CC3)n2)c(-c2ccc(Cl)s2)n1` (stereo not drawn) [Example 195], the log p (pH 2.3) was 2.9^[a]. Further, in data set [1], the protection came out at 95%. Besides, in data set [2], the “% Inhibition of fungal growth at 50 μM” value is recorded as 94% and the “% Inhibition of DON/AcDON at 50 μM” value amounted to 99%.
Consider `CC(C)n1cc(-c2ccnc(NC(=O)C(C)(C)O)c2)c(-c2ccc(Cl)s2)n1` [Example 211], for which the log p (pH 2.7) is 3.17^[b]. In data set [1], the protection stood at 95%. In data set [3], this molecule returned an efficacy of 90%.
Consider `CCn1cc(-c2ccnc(NC(=O)COC)c2)c(-c2ccc(Cl)s2)n1` [Example 261], for which the log p (pH 2.7) is 2.78^[b]. Also, in data set [1], the protection was found to be 90%. Besides, in data set [2], the “% Inhibition of fungal growth at 50 μM” value was 96% and the “% Inhibition of DON/AcDON at 50 μM” value was found to be 98%. Also, in data set [3], the efficacy turned out to be 90%.
For `FC(F)Cn1cc(-c2ccncc2)c(-c2ccc(Cl)s2)n1` [Example 363], the log p (pH 2.7) was 1.61^[b]. This molecule also displayed a protection in data set [1] of 90%. Also, in data set [2], the “% Inhibition of fungal growth at 50 μM” value is 99% and the “% Inhibition of DON/AcDON at 50 μM” value is 99%. This molecule also registered an efficacy in data set [3] of 100%.
As to `Cc1ccc(-c2nn(C(C)C)cc2-c2ccncc2)s1` [Example 199], the log p (pH 2.7) was 1.5^[b]. The same molecule showed a protection in data set [1] of 95%. For the same molecule, in data set [2], the “% Inhibition of fungal growth at 50 μM” value worked out at 100% and the “% Inhibition of DON/AcDON at 50 μM” value is 99%. The same molecule displayed an efficacy in data set [3] of 89%.
For `COCC(=O)Nc1cc(-c2cn(C)nc2-c2ccc(Cl)s2)ccn1` [Example 276] the same measures were 2.4^[b], 80%, 98%, 98% and 90%.
In the case of `CCn1cc(-c2ccnc(NC(=O)c3ccsc3)c2)c(-c2ccc(Cl)s2)n1` [Example 254], the log p (pH 2.7) is 3.29^[b]. The molecule also gave a protection in data set [1] of 90%. For the same molecule, in data set [3], the efficacy stood at 70%.
Regarding `CCOC(=O)Nc1cc(-c2cn(C(C)CC)nc2-c2ccc(Cl)s2)ccn1` (stereo not drawn) [Example 236], the log p (pH 2.7) is 3.92^[b]. The protection in data set [1] is listed as 95%. Moreover, the efficacy in data set [3] turned out to be 80%.
Take `CCC(C)C(=O)Nc1cc(-c2cn(C(C)CC)nc2-c2ccc(Cl)s2)ccn1` (stereo not drawn) [Example 228]: the log p (pH 2.7) was 4.05^[b]. Further, the protection in data set [1] turned out to be 90%. For the same molecule, in data set [2], the “% Inhibition of fungal growth at 50 μM” value is 49% and the “% Inhibition of DON/AcDON at 50 μM” value stood at 92%. This molecule registered an efficacy in data set [3] of 70%.
As for `CCOC(=O)Nc1cc(-c2cn(C)nc2-c2ccc(Cl)s2)ccn1` [Example 271], the log p (pH 2.7) is 2.56^[b]. Further, the protection in data set [1] came to 90%. Besides, in data set [2], the “% Inhibition of fungal growth at 50 μM” value amounted to 20% and the “% Inhibition of DON/AcDON at 50 μM” value amounted to 94%.
As for `CCn1cc(-c2ccnc(NC(=O)Cc3ccccc3)c2)c(-c2ccc(Cl)s2)n1` [Example 262], the log p (pH 2.7) was 3.48^[b]. The protection in data set [1] is recorded as 90%. In data set [3], this molecule showed an efficacy of 80%.
For `CC(=O)N(C(C)=O)c1cc(-c2cnn(/C=C/F)c2-c2ccc(Cl)s2)ccn1` [Example 291], the log p (pH 2.7) is 3.39^[b]. Further, the protection in data set [1] is 95%. Further, in data set [2], the “% Inhibition of fungal growth at 50 μM” value is 18% and the “% Inhibition of DON/AcDON at 50 μM” value amounted to 100%. Besides, the efficacy in data set [3] was found to be 90%.
As for `CCn1cc(-c2ccnc(NC(=O)C(C)(C)C)c2)c(-c2ccc(Cl)s2)n1` [Example 255], under “pH 2.7”, the log p was 3.37^[b]. The same molecule showed a protection in data set [1] of 100%. This molecule also showed an efficacy in data set [3] of 90%.
Regarding `N#CCCn1cc(-c2ccncc2)c(-c2ccc(F)s2)n1` [Example 340], the log p (pH 2.7) is 1.12^[b]. The protection in data set [1] is given as 70%. Besides, in data set [2], the “% Inhibition of fungal growth at 50 μM” value is reported as 91% and the “% Inhibition of DON/AcDON at 50 μM” value came out at 98%. In data set [3], this molecule displayed an efficacy of 94%.
In the case of `Cn1cc(-c2ccnc(NC(=O)c3ccsc3)c2)c(-c2ccc(Cl)s2)n1` [Example 282], the log p (pH 2.7) was 2.88^[b]. Also, in data set [1], the protection turned out to be 70%. Besides, the efficacy in data set [3] came out at 80%.
For `CCn1cc(-c2ccnc(NC(=O)c3cccs3)c2)c(-c2ccc(Cl)s2)n1` [Example 267], the log p (pH 2.7) was 3.48^[b]. In addition, the protection in data set [1] stood at 80%. In addition, in data set [2], the “% Inhibition of fungal growth at 50 μM” value worked out at 47% and the “% Inhibition of DON/AcDON at 50 μM” value was 89%.
Consider `CC(C)n1cc(-c2ccnc(NC3CC3)n2)c(-c2ccc(Cl)s2)n1` [Example 177], for which, under “pH 2.3”, the log p is 2.59^[a]. The same molecule showed a protection in data set [1] of 95%. Further, in data set [3], the efficacy was found to be 90%.
`CCOC(=O)Nc1cc(-c2cn(CC)nc2-c2ccc(Cl)s2)ccn1` [Example 265]: the log p (pH 2.7) was 3^[b]. Moreover, the protection in data set [1] is given as 70%. In data set [2], the “% Inhibition of fungal growth at 50 μM” value came to 23% and the “% Inhibition of DON/AcDON at 50 μM” value came to 87%.
On to `CCC(C)n1cc(-c2ccnc(NC(=O)C(C)(C)O)c2)c(-c2ccc(Cl)s2)n1` (stereo not drawn) [Example 210], for which the log p (pH 2.7) is 4.24^[b]. In data set [1], this molecule had a protection of 70%. In data set [3], this molecule showed an efficacy of 90%.
`CCOC(=O)Nc1cc(-c2cn(C(C)C)nc2-c2ccc(Cl)s2)ccn1` [Example 259]: the log p (pH 2.7) is 3.46^[b]. In data set [1], the protection turned out to be 80%. Moreover, the efficacy in data set [3] turned out to be 90%.
For `CC(C)n1cc(-c2ccnc(NC(=O)c3ccsc3)c2)c(-c2ccc(Cl)s2)n1` [Example 232] the same measures were 3.79^[b], 80% and 80%.
As to `CCC(C)n1cc(-c2ccnc(NC(=O)Cc3ccccc3)c2)c(-c2ccc(Cl)s2)n1` (stereo not drawn) [Example 224], for the setting “pH 2.7”, the log p is 4.35^[b]. Besides, the protection in data set [1] was 95%. This molecule also gave an efficacy in data set [3] of 80%.
For `CC(C)n1cc(-c2ccnc(NC(=O)C(C)(C)C)c2)c(-c2ccc(Cl)s2)n1` [Example 233] the same measures were 3.87^[b], 90% and 90%.
For `CCC(C)n1nc(-c2ccc(Cl)s2)c(-c2ccncc2)c1F` (stereo not drawn) [Example 213] the same measures were 2.61^[b], 70% and 80%.
For `CCn1cc(-c2ccnc(NC(=O)C(C)(C)O)c2)c(-c2ccc(Cl)s2)n1` [Example 212] the same measures were 2.73^[b], 80% and 70%.
For `CC(C)OC(=O)Nc1cc(-c2cn(C)nc2-c2ccc(Cl)s2)ccn1` [Example 274], the log p (pH 2.7) is 2.9^[b]. This molecule came in with a protection in data set [1] of 80%. In data set [3], this molecule registered an efficacy of 80%.
In the case of `CCn1cc(-c2ccnc(NC(=O)[C@H](C)O)c2)c(-c2ccc(Cl)s2)n1` [Example 206], the log p (pH 2.7) is 2.37^[b]. Moreover, in data set [1], the protection is 90%. For the same molecule, in data set [3], the efficacy worked out at 80%.
For the molecule `Cn1cc(-c2ccnc(NC(=O)C3CCC3)c2)c(-c2ccc(Cl)s2)n1` [Example 275], for the setting “pH 2.7”, the log p is 2.52^[b]. The protection in data set [1] came out at 90%. Besides, in data set [2], the “% Inhibition of fungal growth at 50 μM” value amounted to 95% and the “% Inhibition of DON/AcDON at 50 μM” value stood at 99%.
For `CC(C)OC(=O)Nc1cc(-c2cn(C(C)C)nc2-c2ccc(Cl)s2)ccn1` [Example 242], the log p (pH 2.7) is 3.85^[b]. In data set [1], this molecule gave a protection of 70%. Moreover, the efficacy in data set [3] is listed as 90%.
For the molecule `CC(C)n1cc(-c2ccnc(NC(=O)c3cccs3)c2)c(-c2ccc(Cl)s2)n1` [Example 241], where the note is “pH 2.7”, the log p was 3.96^[b]. Further, in data set [1], the protection turned out to be 80%.
